Reference: patent US20260265265A1, “NOVEL BENZIMIDAZOLONE DERIVATIVE COMPOUND AS AUTOTAXIN INHIBITOR” (LG CHEM, LTD., priority 2023, published 2026)
pIC50: −log10 of the molar value.

Target: T1, Recombinant Human ENPP-2/Autotaxin (Homo sapiens, UniProt Q13822)
T1 construct: purchased R&D systems 5255-EN
Experiment: LysoPLD activity measurement (autotaxin enzyme inhibition, choline release, TOOS reagent)
Type: biochemical
Conditions: LysoPLD inhibitory activity; substrate 14:0 LysoPC; absorbance at 555 nm
Method: Such a measurement method is a method of measuring the amount of choline, which is a reaction product in an autotaxin enzyme reaction, using a TOOS reagent. Depending on the activity of the autotaxin inhibitor, the amount of choline produced as a reaction product varies, which affects the final absorbance.
After 30 min, 14:0 LysoPC of the substrate diluted to a concentration of 300 μM with the enzyme reaction buffer solution was dispensed into each well by 50 μL and allowed to stand at 37° C. for 90 minutes. At this time, negative control wells were dispensed with 1% DMSO, substrate, and autotaxin instead of the compound, and positive control wells were dispensed with 1% DMSO and substrate.

| Compound | pIC50 |
| --- | --- |
| CN1CCN(C(=O)c2ccc(-n3c(=O)n(Cc4cccc(C(=O)O)c4)c4ccc(Cl)cc43)cc2)CC1 [Example 60, 3-((5-chloro-3-(4-(4-methylpiperazine-1-carbonyl)phenyl)-2-oxo-2,3-dihydro-1H-benzo[d]imidazol-1-yl)methyl)benzoic acid] | > 8.00 |
| O=C(O)c1cccc(Cn2c(=O)n(-c3ccc(C(=O)N4CCC(O)CC4)cc3)c3cc(Cl)ccc32)c1 [Example 61, 3-((5-chloro-3-(4-(4-hydroxypiperidin-1-carbonyl)phenyl)-2-oxo-2,3-dihydro-1H-benzo[d]imidazol-1-yl)methyl)benzoic acid] | > 8.00 |
| COC1CCN(C(=O)c2ccc(-n3c(=O)n(Cc4cccc(C(=O)O)c4)c4ccc(Cl)cc43)cc2)CC1 [Example 62, 3-((5-chloro-3-(4-(4-methoxypiperidine-1-carbonyl)phenyl)-2-oxo-2,3-dihydro-1H-benzo[d]imidazol-1-yl)methyl)benzoic acid] | > 8.00 |
| O=C(O)c1cccc(C2(n3c(=O)n(-c4ccc(C(=O)N5CCCC5)cc4)c4cc(Cl)ccc43)CC2)c1 [Example 63, 3-(1-(5-chloro-2-oxo-3-(4-(pyrrolidine-1-carbonyl)phenyl)-2,3-dihydro-1H-benzo[d]imidazol-1-yl)cyclopropyl)benzoic acid] | > 8.00 |
| O=C(O)c1cccc(C2(n3c(=O)n(-c4ccc(C(=O)N5CCCCC5)cc4)c4cc(Cl)ccc43)CC2)c1 [Example 64, 3-(1-(5-chloro-2-oxo-3-(4-(piperidin-1-carbonyl)phenyl)-2,3-dihydro-1H-benzo[d]imidazol-1-yl)cyclopropyl)benzoic acid] | > 8.00 |
| CN(C)c1ccc(-n2c(=O)n(Cc3cc(F)cc(C(=O)O)c3)c3c(F)cc(Cl)cc32)cc1 [Example 65, 3-((5-chloro-3-(4-(dimethylamino)phenyl)-7-fluoro-2-oxo-2,3-dihydro-1H-benzo[d]imidazol-1-yl)methyl)-5-fluorobenzoic acid] | 7.00 to 8.00 |
| CN(C)c1ccc(-n2c(=O)n(Cc3cccc(C(=O)O)c3)c3c(F)cc(Cl)cc32)cc1 [Example 66, 3-((5-chloro-3-(4-(dimethylamino)phenyl)-7-fluoro-2-oxo-2,3-dihydro-1H-benzo[d]imidazol-1-yl)methyl)benzoic acid] | 7.00 to 8.00 |
| O=C(O)c1cccc(C2(n3c(=O)n(-c4ccc(C(=O)N5CCCC5)cc4)c4cc(Cl)ccc43)CC2)c1F [Example 67, 3-(1-(5-chloro-2-oxo-3-(4-(pyrrolidine-1-carbonyl)phenyl)-2,3-dihydro-1H-benzo[d]imidazol-1-yl)cyclopropyl)-2-fluorobenzoic acid] | > 8.00 |
| O=C(O)c1cccc(C2(n3c(=O)n(-c4ccc(C(=O)N5CCCCC5)cc4)c4cc(Cl)ccc43)CC2)c1F [Example 68, 3-(1-(5-chloro-2-oxo-3-(4-(piperidine-1-carbonyl)phenyl)-2,3-dihydro-1H-benzo[d]imidazol-1-yl)cyclopropyl)-2-fluorobenzoic acid] | > 8.00 |
| CN(C)c1ccc(-n2c(=O)n(C3(c4cccc(C(=O)O)c4)CC3)c3ccc(Cl)cc32)cc1 [Example 69, 3-(1-(5-chloro-3-(4-(dimethylamino)phenyl)-2-oxo-2,3-dihydro-1H-benzo[d]imidazol-1-yl)cyclopropyl)benzoic acid] | > 8.00 |
| CN(C)c1ccc(-n2c(=O)n(C3(c4cccc(C(=O)O)c4F)CC3)c3ccc(Cl)cc32)cc1 [Example 70, 3-(1-(5-chloro-3-(4-(dimethylamino)phenyl)-2-oxo-2,3-dihydro-JH-benzo[d]imidazol-1-yl)cyclopropyl)-2-fluorobenzoic acid] | > 8.00 |
| CN(C)C(=O)c1ccc(-n2c(=O)n(C3(c4cccc(C(=O)O)c4)CC3)c3ccc(Cl)cc32)cc1 [Example 71, 3-(1-(5-chloro-3-(4-(dimethylcarbamoyl)phenyl)-2-oxo-2,3-dihydro-1H-benzo[d]imidazol-1-yl)cyclopropyl)benzoic acid] | > 8.00 |
| CN(C)C(=O)c1ccc(-n2c(=O)n(C3(c4cccc(C(=O)O)c4F)CC3)c3ccc(Cl)cc32)cc1 [Example 72, 3-(1-(5-chloro-3-(4-(dimethylcarbamoyl)phenyl)-2-oxo-2,3-dihydro-1H-benzo[d]imidazol-1-yl)cyclopropyl)-2-fluorobenzoic acid] | > 8.00 |
| CCOc1ccc(-n2c(=O)n(Cc3cccc(C(=O)O)c3)c3ccc(Cl)cc32)cn1 [Example 75, 3-((5-chloro-3-(6-ethoxypyridin-3-yl)-2-oxo-2,3-dihydro-1H-benzo[d]imidazol-1-yl)methyl)benzoic acid] | 6.00 to 7.00 |
| CCCOc1ccc(-n2c(=O)n(Cc3cccc(C(=O)O)c3)c3ccc(Cl)cc32)cn1 [Example 76, 3-((5-chloro-2-oxo-3-(6-propoxypyridin-3-yl)-2,3-dihydro-1H-benzo[d]imidazol-1-yl)methyl)benzoic acid] | 6.00 to 7.00 |
| O=C(O)c1cccc(Cn2c(=O)n(-c3ccc(N4CC(O)C4)nc3)c3cc(Cl)ccc32)c1 [Example 77, 3-((5-chloro-3-(6-(3-hydroxyazetidin-1-yl)pyridin-3-yl)-2-oxo-2,3-dihydro-1H-benzo[d]imidazol-1-yl)methyl)benzoic acid] | 6.00 to 7.00 |

| Compound | pIC50 |
| --- | --- |
| O=C(O)c1cccc(Cn2c(=O)n(-c3ccc(N4CCOCC4)nc3)c3cc(Cl)ccc32)c1 [Example 78, 3-((5-chloro-3-(6-morpholinopyridin-3-yl)-2-oxo-2,3-dihydro-1H-benzo[d]imidazol-1-yl)methyl)benzoic acid] | 7.00 to 8.00 |
| CN(C)c1ccc(-n2c(=O)n(Cc3cccc(C(=O)O)c3)c3ccc(Cl)cc32)cn1 [Example 79, 3-((5-chloro-3-(6-(dimethylamino)pyridin-3-yl)-2-oxo-2,3-dihydro-1H-benzo[d]imidazol-1-yl)methyl)benzoic acid] | 7.00 to 8.00 |
| O=C(O)c1cccc(Cn2c(=O)n(-c3ccc(N4CCC(F)(F)C4)nc3)c3cc(Cl)ccc32)c1 [Example 80, 3-((5-chloro-3-(6-(3,3-difluoropyrrolidin-1-yl)pyridin-3-yl)-2-oxo-2,3-dihydro-1H-benzo[d]imidazol-1-yl)methyl)benzoic acid] | 6.00 to 7.00 |
| CN1CCN(c2ccc(-n3c(=O)n(Cc4cccc(C(=O)O)c4)c4ccc(Cl)cc43)cn2)CC1 [Example 81, 3-((5-chloro-3-(6-(4-methylpiperazin-1-yl)pyridin-3-yl)-2-oxo-2,3-dihydro-1H-benzo[d]imidazol-1-yl)methyl)benzoic acid] | 6.00 to 7.00 |
| O=C(O)c1cccc(Cn2c(=O)n(-c3ccc(N4CCC(F)(F)CC4)nc3)c3cc(Cl)ccc32)c1 [Example 82, 3-((5-chloro-3-(6-(4,4-difluoropiperidin-1-yl)pyridin-3-yl)-2-oxo-2,3-dihydro-1H-benzo[d]imidazol-1-yl)methyl)benzoic acid] | 7.00 to 8.00 |
| O=C(O)c1cccc(Cn2c(=O)n(-c3cnc(N4CCOCC4)nc3)c3cc(Cl)ccc32)c1 [Example 83, 3-((5-chloro-3-(2-morpholinopyrimidin-5-yl)-2-oxo-2,3-dihydro-1H-benzo[d]imidazol-1-yl)methyl)benzoic acid] | 6.00 to 7.00 |
| CCCn1cc(-n2c(=O)n(Cc3cccc(C(=O)O)c3)c3ccc(Cl)cc32)cn1 [Example 84, 3-((5-chloro-2-oxo-3-(1-propyl-1H-pyrazol-4-yl)-2,3-dihydro-1H-benzo[d]imidazol-1-yl)methyl)benzoic acid] | 6.00 to 7.00 |
| O=C(O)c1cccc(Cn2c(=O)n(-c3cnn(C4CCOCC4)c3)c3cc(Cl)ccc32)c1 [Example 86, 3-((5-chloro-2-oxo-3-(1-(tetrahydro-2H-pyran-4-yl)-1H-pyrazol-4-yl)-2,3-dihydro-1H-benzo[d]imidazol-1-yl)methyl)benzoic acid] | 6.00 to 7.00 |
| CCCn1cc(-n2c(=O)n(Cc3cccc(C(=O)O)c3)c3ccc(Cl)c(F)c32)cn1 [Example 88, 3-((5-chloro-4-fluoro-2-oxo-3-(1-propyl-1H-pyrazol-4-yl)-2,3-dihydro-1H-benzo[d]imidazol-1-yl)methyl)benzoic acid] | 7.00 to 8.00 |
| CC(C)n1cc(-n2c(=O)n(Cc3cccc(C(=O)O)c3)c3ccc(Cl)cc32)cn1 [Example 89, 3-((5-chloro-3-(1-isopropyl-1H-pyrazol-4-yl)-2-oxo-2,3-dihydro-1H-benzo[d]imidazol-1-yl)methyl)benzoic acid] | 6.00 to 7.00 |
| O=C(O)c1cccc(Cn2c(=O)n(-c3cnn(CC4CC4)c3)c3cc(Cl)ccc32)c1 [Example 90, 3-((5-chloro-3-(1-cyclopropylmethyl-1H-pyrazol-4-yl)-2-oxo-2,3-dihydro-1H-benzo[d]imidazol-1-yl)methyl)benzoic acid] | 6.00 to 7.00 |
| O=C(O)c1cccc(Cn2c(=O)n(-c3cnn(CC4CCC4)c3)c3cc(Cl)ccc32)c1 [Example 91, 3-((5-chloro-3-(1-cyclobutylmethyl-1H-pyrazol-4-yl)-2-oxo-2,3-dihydro-1H-benzo[d]imidazol-1-yl)methyl)benzoic acid] | 6.00 to 7.00 |
| CCCn1cc(-n2c(=O)n(Cc3cccc(C(=O)O)c3F)c3ccc(Cl)c(F)c32)cn1 [Example 92, 3-((5-chloro-4-fluoro-2-oxo-3-(1-propyl-1H-pyrazol-4-yl)-2,3-dihydro-1H-benzo[d]imidazol-1-yl)methyl)-2-fluorobenzoic acid] | 7.00 to 8.00 |
| O=C(O)c1cccc(C2(n3c(=O)n(-c4ccc(C(=O)N5CC6(CCOCC6)C5)cc4)c4cc(Cl)ccc43)CC2)c1 [Example 93, 3-(1-(3-(4-(7-oxa-2-azaspiro[3.5]nonane-2-carbonyl)phenyl)-5-chloro-2-oxo-2,3-dihydro-1H-benzo[d]imidazol-1-yl)cyclopropyl)benzoic acid] | > 8.00 |
| O=C(O)c1cccc(Cn2c(=O)n(-c3ccc(N4CCC(F)(F)CC4)cc3)c3cc(Cl)ccc32)c1 [Example 94, 3-((5-chloro-3-(4-(4,4-difluoropiperidin-1-yl)phenyl)-2-oxo-2,3-dihydro-1H-benzo[d]imidazol-1-yl)methyl)benzoic acid] | 7.00 to 8.00 |
